Assay results published in patent publication US20130005568A1, “SAFENED HERBICIDAL MIXTURES” (E.I. DU PONT DE NEMOURS AND COMPANY, priority 2011, published 2013).

Tests used:
Assay in all cases: Test G: turf grass and weed postemergence plant response rating
Perennial ryegrass = assay type: in vivo, Lolium perenne L.; conditions: Perennial ryegrass, postemergence, greenhouse, three weeks, 0-100 scale
From the text: (§1) For all of the following biological tests, plant response ratings were based on a 0-100 scale where zero is growth equivalent to that of untreated plants (no plant response) and 100 represents no additional growth occurring after herbicide treatment.
(§2) Plants of the turf grass species: zoysia (Zoysia japonica Steud.), bermudagrass (Cynodon dactylon (L.) Pers.), tall fescue (Festuca arundinacea Shreib.), creeping bentgrass (Agrostis stoonoifera L.), perennial ryegrass (Lolium perenne L.) and hard fescue (Festuca species) were grown under greenhouse conditions for four months. Plants were clipped as needed to plant heights of 5-10 cm. Weeds typically found in turf: annual bluegrass (Poa annua L.), common chickweed (Stellaria media (L.) Vill.), large crabgrass (Digitaria sanguinales (L.) Scop.), dandelion (Taraxacum officinale Weber in Wiggers), goosegrass (Eleusine indica (L.) Gaertn.), henbit (Lamium amplexicaule L.), venice mallow (Hibiscus trionium L.) and purple nutsedge (Cyperus rotundus L.) were also grown under greenhouse conditions so that plants were 5-20 cm tall when they were treated. Herbicide mixtures were formulated, dissolved/dispersed in water containing 0.25% non-ionic surfactant, and sprayed postemergence to these turf grasses and weeds. Treated plants were grown under greenhouse conditions for three weeks before visual evaluations of plant responses were recorded.

Creeping bentgrass = assay type: in vivo, Agrostis stoonoifera L.; conditions: Creeping bentgrass, postemergence, greenhouse, three weeks, 0-100 scale
From the text: as §1, §2

Hard fescue = assay type: in vivo, Festuca species; conditions: Hard fescue, postemergence, greenhouse, three weeks, 0-100 scale
From the text: as §1, §2

Goosegrass = assay type: in vivo, Eleusine indica (L.) Gaertn.; conditions: Goosegrass, postemergence, greenhouse, three weeks, 0-100 scale
From the text: as §1, §2

Bermudagrass = assay type: in vivo, Cynodon dactylon (L.) Pers.; conditions: Bermudagrass, postemergence, greenhouse, three weeks, 0-100 scale
From the text: as §1
Plants of the turf grass species: zoysia (Zoysia japonica Steud.), bermudagrass (Cynodon dactylon (L.) Pers.), tall fescue (Festuca arundinacea Shreib.), creeping bentgrass (Agrostis stoonoifera L.), perennial ryegrass (Lolium perenne L.) and hard fescue (Festuca species) were grown under greenhouse conditions for four months. Plants were clipped as needed to plant heights of 5-10 cm. […] Herbicide mixtures were formulated, dissolved/dispersed in water containing 0.25% non-ionic surfactant, and sprayed postemergence to these turf grasses and weeds. Treated plants were grown under greenhouse conditions for three weeks before visual evaluations of plant responses were recorded.

Tall fescue = assay type: in vivo, Festuca arundinacea Shreib.; conditions: Tall fescue, postemergence, greenhouse, three weeks, 0-100 scale
From the text: as §1, §2

Purple nutsedge = assay type: in vivo, Cyperus rotundus L.; conditions: Purple nutsedge, postemergence, greenhouse, three weeks, 0-100 scale
From the text: as §1, §2

Zoysia grass = assay type: in vivo, Zoysia japonica Steud.; conditions: Zoysia grass, postemergence, greenhouse, three weeks, 0-100 scale
From the text: as §1, §2

Chickweed = assay type: in vivo, Stellaria media (L.) Vill.; conditions: Chickweed, postemergence, greenhouse, three weeks, 0-100 scale
From the text: as §1, §2

Annual bluegrass = assay type: in vivo, Poa annua L.; conditions: Annual bluegrass, postemergence, greenhouse, three weeks, 0-100 scale
From the text: as §1, §2

Dandelion = assay type: in vivo, Taraxacum officinale Weber in Wiggers; conditions: Dandelion, postemergence, greenhouse, three weeks, 0-100 scale
From the text: as §1, §2

Henbit = assay type: in vivo, Lamium amplexicaule L.; conditions: Henbit, postemergence, greenhouse, three weeks, 0-100 scale
From the text: as §1, §2

Large crabgrass = assay type: in vivo, Digitaria sanguinales (L.) Scop.; conditions: Large crabgrass, postemergence, greenhouse, three weeks, 0-100 scale
From the text: as §1, §2

Venice mallow = assay type: in vivo, Hibiscus trionium L.; conditions: Venice mallow, postemergence, greenhouse, three weeks, 0-100 scale
From the text: as §1, §2

[1] = herbicide 80 g ai/ha + Compound 1 125 g ai/ha

## COc1cc(OC)nc(NC(=O)NS(=O)(=O)c2ncccc2C(=O)N(C)C)n1 [Nicosulfuron, nicosulfuron]
Perennial ryegrass; [1]
  Observed Response, Herbicide mixture with Compound 1: 50
Perennial ryegrass; herbicide 80 g ai/ha
  Observed Response, Herbicide alone: 80
Creeping bentgrass; [1]
  Observed Response, Herbicide mixture with Compound 1: 88
Creeping bentgrass; herbicide 80 g ai/ha
  Observed Response, Herbicide alone: 80
Hard fescue; [1]
  Observed Response, Herbicide mixture with Compound 1: 30
Hard fescue; herbicide 80 g ai/ha
  Observed Response, Herbicide alone: 60
Goosegrass; [1]
  Observed Response, Herbicide mixture with Compound 1: 90
Goosegrass; herbicide 80 g ai/ha
  Observed Response, Herbicide alone: 80
Bermudagrass; [1]
  Observed Response, Herbicide mixture with Compound 1: 0
Bermudagrass; herbicide 80 g ai/ha
  Observed Response, Herbicide alone: 0
Tall fescue; [1]
  Observed Response, Herbicide mixture with Compound 1: 60
Tall fescue; herbicide 80 g ai/ha
  Observed Response, Herbicide alone: 60
Purple nutsedge; [1]
  Observed Response, Herbicide mixture with Compound 1: 80
Purple nutsedge; herbicide 80 g ai/ha
  Observed Response, Herbicide alone: 80
Zoysia grass; [1]
  Observed Response, Herbicide mixture with Compound 1: 0
Zoysia grass; herbicide 80 g ai/ha
  Observed Response, Herbicide alone: 25
Chickweed; [1]
  Observed Response, Herbicide mixture with Compound 1: 100
Chickweed; herbicide 80 g ai/ha
  Observed Response, Herbicide alone: 100
Annual bluegrass; [1]
  Observed Response, Herbicide mixture with Compound 1: 100
Annual bluegrass; herbicide 80 g ai/ha
  Observed Response, Herbicide alone: 100
Dandelion; [1]
  Observed Response, Herbicide mixture with Compound 1: 100
Dandelion; herbicide 80 g ai/ha
  Observed Response, Herbicide alone: 100
Henbit; [1]
  Observed Response, Herbicide mixture with Compound 1: 100
Henbit; herbicide 80 g ai/ha
  Observed Response, Herbicide alone: 100
Large crabgrass; [1]
  Observed Response, Herbicide mixture with Compound 1: 100
Large crabgrass; herbicide 80 g ai/ha
  Observed Response, Herbicide alone: 100
Venice mallow; [1]
  Observed Response, Herbicide mixture with Compound 1: 80
Venice mallow; herbicide 80 g ai/ha
  Observed Response, Herbicide alone: 40
